Assay results reported in ChEMBL document CHEMBL3108723, “Combatting resistant bacteria with the help of Beta-lactamase inhibitors” (2014).

Columns and labels:
Type in all cases: functional
Pseudomonas aeruginosa [1] = assay: Antibacterial activity against Pseudomonas aeruginosa producing PER-1 and OXA-10 beta-lactamase assessed as reduction in MIC of ceftazidime at […] by broth microdilution method relative to control
Pseudomonas aeruginosa [2] = assay: Antibacterial activity against Pseudomonas aeruginosa producing AmpC beta-lactamase assessed as reduction in MIC of ceftazidime at […] by broth microdilution method relative to control
Klebsiella pneumoniae = assay: Antibacterial activity against Klebsiella pneumoniae producing KPC2 beta-lactamase assessed as reduction in MIC of ceftazidime at […] by broth microdilution method relative to control

Measured: fold change (FC)

CC1=C[C@@H](C(N)=O)N2C[C@@H]1N(OS(=O)(=O)[O-])C2=O.[Na+]
4: all assays above

CC1=C[C@@H](C(=O)NCc2cc(=O)c(O)c[nH]2)N2C[C@@H]1N(OS(=O)(=O)O)C2=O
4: all assays above

COCC1=C[C@@H](COC)N2C[C@@H]1N(OS(=O)(=O)[O-])C2=O.[Na+]
4: all assays above
